According to patent US5137811A, “Method for diagnosing periodontal diseases with a substrate specific for aminopeptidase activity of periodontopathic bacteria” (Sunstar Kabushiki Kaisha, priority 1986, dated 1992):
Where a SMILES comes first, the peptide text is derived from it. The star is where a group is joined. βNA = c1ccc2cc(N*)ccc2c1; Cbz = O=C(OCc1ccccc1)*; Bz = O=C(c1ccccc1)*

Tests used:
[1] = system: Actinobacillus actinomycetemcomitans; test: Hydrolytic activity of cell suspension on aminopeptidase substrates (Experiment 2); type: cell-based; details: four strains, Table 2
Outline: (§1)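 Treponema strains were cultured anaerobically in TYGVS for 7 days at 37° C.; the other bacteria grew in brain heart infusion broth for 48 to 72 hours. Each suspension, diluted to A660 1.0, hydrolysed 0.2 mM substrate over 60 minutes at 37° C., and colour developed 15 minutes before reading at 525 nm.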

Actinomyces israelli [2] = test: as above; type: cell-based; details: two strains, Table 2
Outline: as §1

B. corporis = test: as above; type: cell-based; details: Table 2
Outline: as §1

B. denticola = test: as above; type: cell-based; details: Table 2
Outline: as §1

B. gingivalis [3] = test: as above; type: cell-based; details: five strains, Table 2
Outline: as §1

B. intermedius = test: as above; type: cell-based; details: three strains, Table 2
Outline: as §1

B. melaninogenicus = test: as above; type: cell-based; details: two strains, Table 2
Outline: as §1

Fusobacterium nucleatum [4] = test: as above; type: cell-based; details: three strains, Table 2
Outline: as §1

Treponema denticola [5] = test: as above; type: cell-based; details: four strains, Table 2
Outline: as §1

[6] = system: Actinobacillus actinomycetemcomitans; test: Hydrolytic activity of cell suspension, substrates alone or in combination (Experiment 3); type: cell-based; details: four strains, Table 3
Description: (§2) The strains of Treponema were anaerobically cultivated using TYGVS media at 37° C. for 7 days, while other bacterial strains were cultivated using brain heart infusion broth at 37° C. for 48 to 72 hours. Each culture was diluted to obtain a bacterial cell suspension, the absorption at 660 nm of which was 1.0.
(§3) Substrate compounds for aminopeptidase enzyme having various color developing groups derived from β-naphthylamine were dissolved in 0.1M Tris-HCl buffer (pH 7.0) at the concentration of 0.2 mM to obtain substrate solutions.
(§4) To the substrate solution (1.5 ml) was added the above cell suspension (0.3 ml) and reacted at 37° C. for 60 minutes. After completion of the reaction, a coloring reagent [prepared by dissolving diazonium salt of Garnet GBC in 1M acetate buffer (containing 10% Tween 20, pH: 4.2) at the concentration of 0.5 mg/ml] was added and, after 15 minutes, the absorption at 525 nm was determined with a spectrophotometer.
(§5) On the basis of the average amount of released β-naphthylamine in each strain, the hydrolytic activity was expressed as follows: […]
(§6) According to the same manner as described in Experiment 1, periodontopathic bacteria specific aminopeptidase activity was tested by using four strains of Treponema denticola, five strains of B. gingivalis, four strains of Actinobacillus actinomycetemcomitans, two strains of Actinomyces israelli and three strains of Fusobacterium nucleatum. Abbreviations in Table 3 are the same as those in Tables 1 and 2. Hydrolytic activity "+++" means "40≤release amount<80 nmol/ml" and "++++" means "release amount≥80 nmol/ml".

Actinomyces israelli [7] = test: as above; type: cell-based; details: two strains, Table 3
Description: as §2, §3, §4, §5, §6

B. gingivalis [8] = test: as above; type: cell-based; details: five strains, Table 3
Description: as §2, §3, §4, §5, §6

Fusobacterium nucleatum [9] = test: as above; type: cell-based; details: three strains, Table 3
Description: as §2, §3, §4, §5, §6

Treponema denticola [10] = test: as above; type: cell-based; details: four strains, Table 3
Description: as §2, §3, §4, §5, §6

[11] = system: periodontopathic bacteria specific aminopeptidase activity; test: Hydrolytic activity of gingival crevicular fluid specimens, OD525 (Experiment 6); type: biochemical
Description: as §3, §4
Specimens of gingival crevicular fluid were collected with paper points from five subjects who were considered to be healthy from their clinical state, six subjects with gingivitis and six subjects with periodontitis. Each specimen was dispersed in Ringer's solution (1.5 ml), and the relative amount of spirochete to total bacteria: [formula] was determined with a phase contrast microscope. Further, the Ringer's solution (0.3 ml) was tested for hydrolytic activity using the substrate solution prepared in the same manner as described in Experiment 1. As substrates, there were used compounds of the formula [1], i.e., N-benzoylvalyl-glycyl-arginine-β-naphthylamide (BzVGR) and N-carbobenzoxy-valyl-glycyl-arginine-β-naphthylamide (CxVGR) were used.
According to the same manner as described in Experiment 4, hydrolytic activity was tested by using the compounds of the formulas and [2], i.e., glycyl-proline-βnaphthylamide (GP), N-benzoyl-arginyl-glycyl-phenylalanylproline-β-naphthylamide (BzRGFP), N-carbobenzoxy-valylglycyl-arginine-β-naphthylamide (CxVGR) and N-benzoylglycyl-arginine-β-naphthylamide (BzGR) alone or in combination. Hydrolytic activity was determined by measuring absorption at 525 nm (OD525) and expressed as follows.

[12] = system: periodontopathic bacteria specific aminopeptidase activity; test: Hydrolytic activity of saliva supernatant, substrates alone or in combination (Experiment 9); type: biochemical; details: 37° C. for 4 hours, Table 9
Description: A saliva mixture was collected from a group consisting of ten healthy subjects and centrifuged to obtain a supernatant. Likewise, centrifuged supernatants were obtained from a group of ten subjects with adult periodontitis and a group of four localized juvenile periodontitis. The supernatant was used as a specimen and its hydrolytic activity was determined according to the same manner as described in Experiment 4 except that the reaction was carried out at 37° C. for 4 hours. As the substrates, there were used N-carbobenzoxy-valyl-glycyl-arginine-p-nitrophenol (CxVGR-pNP), N-carbobenzoxy-valyl-glycylarginine-4-methoxy-2-naphthylamide (CxVGR-4NA) and N-carbobenzoxy-valyl-glycyl-arginine-β-naphthylamide (CxVGR-βNA). Color was developed by using lN sodium hydroxide for CxVGR-pNP and Fast Blue BB for CxVGR-4NA and CxVGR-βNA.
According to the same manner as described in Experiment 7, hydrolytic activity was tested by using N-carbobenzoxy-valyl-glycyl-arginine-β-naphthylamide (CxVGR-βNA), N-benzoyl-arginyl-glycyl-phenylalanyl-proline-β-naphthylamide (BzRGFP-βNA), N-carbobenzoxy-valyl-glycylarginine-p-nitrophenol (CxVGR-pNP) and N-benzoyl-arginylglycyl-phenylalanyl-proline-p-nitrophenol (BzRGFP-pNP) alone or in combination as the substrates.

[13] = Gingivitis subject 1 (spirochete 7.3 %)
[14] = Gingivitis subject 2 (spirochete 16.7 %)
[15] = Gingivitis subject 3 (spirochete 20.5 %)
[16] = Gingivitis subject 4 (spirochete 6.8 %)
[17] = Gingivitis subject 5 (spirochete 7.3 %)
[18] = Gingivitis subject 6 (spirochete 14.4 %)
[19] = Healthy subject 1 (spirochete 0.1 %)
[20] = Healthy subject 3 (spirochete 1.1 %)
[21] = Healthy subject 4 (spirochete 0.6 %)
[22] = Healthy subject 5 (spirochete 1.3 %)
[23] = Periodontitis subject 1 (spirochete 45.2 %)
[24] = Periodontitis subject 2 (spirochete 30.3 %)
[25] = Periodontitis subject 3 (spirochete 34.6 %)
[26] = Periodontitis subject 4 (spirochete 21.2 %)
[27] = Periodontitis subject 5 (spirochete 40.3 %)
[28] = Periodontitis subject 6 (spirochete 35.1 %)

| SMILES | hydrolytic activity (average amount of released β-naphthylamine) [1] | hydrolytic activity (average amount of released β-naphthylamine) (Actinomyces israelli [2]) | hydrolytic activity (average amount of released β-naphthylamine) (B. corporis) | hydrolytic activity (average amount of released β-naphthylamine) (B. denticola) | hydrolytic activity (average amount of released β-naphthylamine) (B. gingivalis [3]) | hydrolytic activity (average amount of released β-naphthylamine) (B. intermedius) | hydrolytic activity (average amount of released β-naphthylamine) (B. melaninogenicus) | hydrolytic activity (average amount of released β-naphthylamine) (Fusobacterium nucleatum [4]) | hydrolytic activity (average amount of released β-naphthylamine) (Treponema denticola [5]) | hydrolytic activity (release amount) [6] | hydrolytic activity (release amount) (Actinomyces israelli [7]) | hydrolytic activity (release amount) (B. gingivalis [8]) | hydrolytic activity (release amount) (Fusobacterium nucleatum [9]) | hydrolytic activity (release amount) (Treponema denticola [10]) | hydrolytic activity, absorption at 525 nm (OD525) [11, 13] | hydrolytic activity, absorption at 525 nm (OD525) [11, 14] | hydrolytic activity, absorption at 525 nm (OD525) [11, 15] | hydrolytic activity, absorption at 525 nm (OD525) [11, 16] | hydrolytic activity, absorption at 525 nm (OD525) [11, 17] | hydrolytic activity, absorption at 525 nm (OD525) [11, 18] | other results |
| --- | --- | --- | --- | --- | --- | --- | --- | --- | --- | --- | --- | --- | --- | --- | --- | --- | --- | --- | --- | --- | --- |
| NCCCC[C@H](NC(=O)OCc1ccccc1)C(=O)N1CCC[C@H]1C(=O)Nc1ccc2ccccc2c1 [CxKP, N-carbobenzoxy-lysyl-proline-β-naphthylamide] (Cbz-Lys-Pro-βNA) | - (release amount<5 nmol/ml) | - (release amount<5 nmol/ml) | ++ (20 ≤release amount<40 nmol/ml) | ++ (20 ≤release amount<40 nmol/ml) | ++ (20 ≤release amount<40 nmol/ml) | ++ (20 ≤release amount<40 nmol/ml) | ++ (20 ≤release amount<40 nmol/ml) | - (release amount<5 nmol/ml) | + (10 ≤release amount<20 nmol/ml) | - (release amount<5 nmol/ml) | - (release amount<5 nmol/ml) | ++ (20 ≤release amount<40 nmol/ml) | - (release amount<5 nmol/ml) | + (10 ≤release amount<20 nmol/ml) | – | – | – | – | – | – | – |
| N=C(N)NCCC[C@H](NC(=O)c1ccccc1)C(=O)NCC(=O)N[C@@H](Cc1ccccc1)C(=O)N1CCC[C@H]1C(=O)Nc1ccc2ccccc2c1 [BzRGFP, N-benzoyl-arginyl-glycyl-phenylalanyl-proline-β-naphthylamide] (Bz-RGFP-βNA) | - (release amount<5 nmol/ml) | - (release amount<5 nmol/ml) | ++ (20 ≤release amount<40 nmol/ml) | +++ (release amount≥40 nmol/ml) | ++ (20 ≤release amount<40 nmol/ml) | +++ (release amount≥40 nmol/ml) | +++ (release amount≥40 nmol/ml) | - (release amount<5 nmol/ml) | ++ (20 ≤release amount<40 nmol/ml) | - (release amount<5 nmol/ml) | - (release amount<5 nmol/ml) | ++ (20 ≤release amount<40 nmol/ml) | - (release amount<5 nmol/ml) | ++ (20 ≤release amount<40 nmol/ml) | + (0.1≤OD525 <0.2) | + (0.1≤OD525 <0.2) | ++ (0.2≤OD525 <0.4) | - (OD525 <0.1) | - (OD525 <0.1) | + (0.1≤OD525 <0.2) | hydrolytic activity, absorption at 525 nm (OD525) [11, 19]: - (OD525 <0.1); hydrolytic activity, absorption at 525 nm (OD525) ([11]; Healthy subject 2 (spirochete 2.5 %)): + (0.1≤OD525 <0.2); hydrolytic activity, absorption at 525 nm (OD525) [11, 20]: - (OD525 <0.1); hydrolytic activity, absorption at 525 nm (OD525) [11, 21]: - (OD525 <0.1); hydrolytic activity, absorption at 525 nm (OD525) [11, 22]: - (OD525 <0.1); hydrolytic activity, absorption at 525 nm (OD525) [11, 23]: +++ (0.4≤OD525 <0.8); hydrolytic activity, absorption at 525 nm (OD525) [11, 24]: +++ (0.4≤OD525 <0.8); hydrolytic activity, absorption at 525 nm (OD525) [11, 25]: +++ (0.4≤OD525 <0.8); hydrolytic activity, absorption at 525 nm (OD525) [11, 26]: +++ (0.4≤OD525 <0.8); hydrolytic activity, absorption at 525 nm (OD525) [11, 27]: +++ (0.4≤OD525 <0.8); hydrolytic activity, absorption at 525 nm (OD525) [11, 28]: +++ (0.4≤OD525 <0.8); hydrolytic activity ([12]; Adult Periodontitis subjects): 27.8 ± 7.4 nmol/mL; hydrolytic activity ([12]; Healthy subjects): 13.2 ± 5.4 nmol/mL; hydrolytic activity ([12]; Localized juvenile periodontitis subjects): 22.6 ± 5.3 nmol/mL |
| NCC(=O)N1CCC[C@H]1C(=O)Nc1ccc2ccccc2c1 [GP, glycyl-proline-β-naphthylamide] (H-Gly-Pro-βNA) | - (release amount<5 nmol/ml) | - (release amount<5 nmol/ml) | ++ (20 ≤release amount<40 nmol/ml) | - (release amount<5 nmol/ml) | +++ (release amount≥40 nmol/ml) | + (10 ≤release amount<20 nmol/ml) | ++ (20 ≤release amount<40 nmol/ml) | - (release amount<5 nmol/ml) | ++ (20 ≤release amount<40 nmol/ml) | - (release amount<5 nmol/ml) | - (release amount<5 nmol/ml) | +++ (40≤release amount<80 nmol/ml) | - (release amount<5 nmol/ml) | ++ (20 ≤release amount<40 nmol/ml) | + (0.1≤OD525 <0.2) | + (0.1≤OD525 <0.2) | ++ (0.2≤OD525 <0.4) | - (OD525 <0.1) | - (OD525 <0.1) | + (0.1≤OD525 <0.2) | hydrolytic activity, absorption at 525 nm (OD525) [11, 19]: - (OD525 <0.1); hydrolytic activity, absorption at 525 nm (OD525) [11, 20]: - (OD525 <0.1); hydrolytic activity, absorption at 525 nm (OD525) [11, 21]: - (OD525 <0.1); hydrolytic activity, absorption at 525 nm (OD525) [11, 22]: - (OD525 <0.1); hydrolytic activity, absorption at 525 nm (OD525) [11, 23]: +++ (0.4≤OD525 <0.8); hydrolytic activity, absorption at 525 nm (OD525) [11, 24]: +++ (0.4≤OD525 <0.8); hydrolytic activity, absorption at 525 nm (OD525) [11, 25]: +++ (0.4≤OD525 <0.8); hydrolytic activity, absorption at 525 nm (OD525) [11, 26]: ++ (0.2≤OD525 <0.4); hydrolytic activity, absorption at 525 nm (OD525) [11, 27]: +++ (0.4≤OD525 <0.8); hydrolytic activity, absorption at 525 nm (OD525) [11, 28]: +++ (0.4≤OD525 <0.8) |
